Measurements from patent US20090304688A1, “Methods and Compositions for Increasing the Efficiency of Therapeutic Antibodies Using Gamma Delta T Cell Activators” (INNATE PHARMA S.A., priority 2006, published 2009).

Test system: γδ T lymphocytes
Assay: In vivo amplification of γδ T lymphocytes in primates

Substance: 3-(bromomethyl)-3-butanol-1-yl-diphosphate [BrHPP]
- amplification of γδ T lymphocytes in vivo (BrHPP 90 mg/kg i.v. with IL-2 in rituximab-treated animals): efficiently and repeatedly amplified
- level and kinetics of γδ T lymphocyte response (BrHPP in rituximab-treated animals compared with BrHPP alone): at least as good as what is generally observed with BrHPP alone
